Reference: patent publication US12410155B2, “Salt form and crystal form of tetrahydrocyclohepta indazole compound” (Zhejiang Yangli Pharmaceutical Technology Co., Ltd., priority 2021, dated 2025)
Like-named read-outs stand apart in the source and are kept apart here.

Assays:
CYP3A = CYP3A (Homo sapiens, UniProt P08684); experiment: Inhibition of cytochrome P450 isozymes in human liver microsomes, CYP3A; assay type: in vitro ADME
Experimental: (1) Study on the Inhibition of Cytochrome P450 Isozymes
The probe substrate, test compound, human liver microsomes, and cofactors were incubated together. The concentration of the metabolic product of the probe substrate was detected using LC-MS/MS to calculate the IC50 values. In the vehicle control samples, the test compound was replaced with an equal volume of vehicle, and the enzyme activity of the vehicle control samples was set as 100%. […]
Upon reaching the respective reaction times for the incubation systems of the various isoenzymes, 200 μL of termination solution containing the appropriate internal standard was added to the reaction plate to terminate the reaction. […] The metabolites of the probe substrates were then analyzed using LC-MS/MS. […]
The activity of various CYP isoenzymes was reflected by the production rate of metabolites from each probe substrate. […] The residual activity percentage of each isoenzyme was determined by comparing the metabolite production rate of the probe substrate in the presence of different concentrations of the test compound or positive inhibitor to that of the vehicle control samples, then multiplying by 100%. […]

[1] = tested on: human breast cancer MCF-7 cell subcutaneous xenograft tumor; assay type: in vivo; conditions: PO, QD; for T/C (%) / TGI (%) / Tumor volume (mm^3) (Day 21): Day 21; for Tumor volume (mm^3) (Day 21): listed as compound (I)
Experimental: (1) In Vivo Pharmacodynamic Study of Breast Cancer MCF-7 Cell Subcutaneous Xenograft Tumor BALB/c Nude Mouse Model
Objective: This study aimed to evaluate the in vivo efficacy of the crystal form C of the compound of formula (I) using a human breast cancer MCF-7 cell subcutaneous xenograft tumor model in nude mice.
Routine digestion with trypsin-EDTA (Gibco) was performed twice a week for passaging.
Cell inoculation: Estrogen pellets (0.36 mg/pellet; IRA) were subcutaneously inoculated into the left dorsum of each mouse. Three days later, 0.2 mL (1×10^7 cells) of MCF-7 cells (mixed with Matrigel; CORNING, volume ratio 1:1) were subcutaneously inoculated into the right dorsum of each mouse. When the average tumor volume reached 188 mm^3, the mice were grouped and the administration of compounds began.
An appropriate amount of the compound of formula (I) was weighed and prepared into 0.1, 0.3, 1, and 3 mg/mL solutions. […] Fulvestrant was used as the commercially available injection Faslodex.
The antitumor efficacy of the compounds was evaluated using Tumor Growth Inhibition (TGI, %) and relative tumor proliferation rate (T/C, %).
The Q value of combined medication index was calculated using the Jin formula. The criteria for judgment were as follows: a Q value of 0.85 to 1.15 indicated […] (+); a Q value>1.15 to 2.0 indicated enhancement (++); a Q value<0.85 to 0.55 indicated antagonism (−); and a Q value<0.55 indicated significant antagonism (−−). The formula was Q=Ea+b/(Ea+Eb−Ea×Eb), where Ea+b was the tumor inhibition rate of the combined medication group, and Ea and Eb were the tumor inhibition rates of the single medication groups, respectively.
Inter-group comparisons were analyzed using one-way ANOVA. […] A p value<0.05 was considered to indicate a significant difference.

MCF-7 cells = experiment: MCF-7 cell proliferation inhibition assay (CTG); assay type: cell-based; conditions: Homo sapiens
Experimental: (4) MCF-7, T-47D, and CAMA-1 Cell Proliferation Inhibition Assay
The inhibitory effect of the test compound of formula (I) on the proliferation of MCF-7, CAMA-1, and T-47D cells was analyzed. For MCF-7 cells, ten concentration gradients ranging from 100 nM to 0.0003815 nM were tested, with three replicates for each concentration. For CAMA-1 cells, nine concentration gradients ranging from 100 nM to 0.001526 nM were tested, also with three replicates for each concentration. For T-47D cells, nine concentration gradients ranging from 2 μM to 0.00512 nM were tested, with three replicates for each concentration. Each experiment was conducted twice independently.
MCF-7 cells that reached 80% cell fusion were digested using trypsin, centrifuged, resuspended, and counted. Cell suspensions were prepared using the corresponding culture medium, and 45 μL of the suspension was added to each well of a 384-well plate. The plate was then incubated at 37° C. in a cell incubator with 5% CO2. The test compound of formula (I) was dissolved in DMSO to an initial concentration of 20 μM and subjected to a 4-fold serial dilution to achieve ten different concentrations. After overnight incubation, the diluted compound was further diluted with the corresponding cell culture medium. The resulting mixture was transferred to the respective wells of the cell plate, starting with a final concentration of 100 nM, followed by a 4-fold serial dilution to achieve ten concentrations. The positive control wells contained 2 μM fulvestrant. The plate was mixed, centrifuged, and incubated at 37° C. in a cell incubator with 5% CO2 for the specified number of days according to the above table.
After incubation for the specified time, the cell culture plate was removed, and the CTG reagent was added. The plate was thoroughly mixed, centrifuged, and incubated at room temperature for 10 minutes. The readings were taken using the Envision multi-label analyzer. Data analysis:
Positive control: cells treated with 2 μM fulvestrant; negative control: cells treated with 0.5% DMSO. […]

CYP3A, sequence (P08684 2-503): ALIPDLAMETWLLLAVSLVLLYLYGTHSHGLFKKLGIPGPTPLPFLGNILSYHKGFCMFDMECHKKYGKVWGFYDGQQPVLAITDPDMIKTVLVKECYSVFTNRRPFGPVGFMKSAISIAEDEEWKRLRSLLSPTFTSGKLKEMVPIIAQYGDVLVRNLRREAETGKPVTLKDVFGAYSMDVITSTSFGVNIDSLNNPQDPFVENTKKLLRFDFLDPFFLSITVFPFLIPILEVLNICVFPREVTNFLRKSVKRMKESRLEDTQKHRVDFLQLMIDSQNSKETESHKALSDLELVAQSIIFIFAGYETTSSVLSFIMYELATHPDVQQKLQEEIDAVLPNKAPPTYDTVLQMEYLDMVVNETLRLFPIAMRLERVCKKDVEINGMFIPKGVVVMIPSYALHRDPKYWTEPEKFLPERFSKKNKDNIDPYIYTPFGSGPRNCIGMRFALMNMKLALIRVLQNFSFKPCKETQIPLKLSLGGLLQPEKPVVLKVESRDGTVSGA

**Q.** What does the source list for `FCCCN1CC[C@H](Nc2cnc(C3=C(CC(F)(F)F)CCCc4c3ccc3[nH]nc(F)c43)cn2)C1` [Compound of formula (I)]?
**A.** IC50 at 3 min (CYP3A; probe midazolam, midazolam as the substrate): 8380 nM; IC50 at 10 min (CYP3A; probe testosterone, testosterone as the substrate): 10900 nM; T/C (%) ([1]; 1 mg/kg): 27.2%; TGI (%) ([1]; 1 mg/kg): 85.3%; Tumor volume (mm^3) (Day 21) ([1]; 1 mg/kg): 340 mm^3; T/C (%) ([1]; 3 mg/kg): 14.8%; TGI (%) ([1]; 3 mg/kg): 100.9%; Tumor volume (mm^3) (Day 21) ([1]; 3 mg/kg): 179 mm^3; ORR % ([1]; 10 mg/kg): 25%; T/C (%) ([1]; 10 mg/kg): 11.3%; TGI (%) ([1]; 10 mg/kg): 104.6%; Tumor volume (mm^3) (Day 21) ([1]; 10 mg/kg): 140 mm^3; ORR % ([1]; 30 mg/kg): 25%; T/C (%) ([1]; 30 mg/kg): 9.7%; TGI (%) ([1]; 30 mg/kg): 106.5%; Tumor volume (mm^3) (Day 21) ([1]; 30 mg/kg): 121 mm^3; IC50 (MCF-7 cells; MCF7, First experiment): 0.19 nM; IC50 (MCF-7 cells; MCF7, Mean ± SD): 0.18 ± 0.013 nM; IC50 (MCF-7 cells; MCF7, Second experiment): 0.16 nM
